The target of data set [1] is T1, peptide amidase from Xanthomonas maltophilia (Stenotrophomonas maltophilia, UniProt Q8RJN5).
T1 construct: wild type, not recombinant
T1 sequence (Q8RJN5 34-540): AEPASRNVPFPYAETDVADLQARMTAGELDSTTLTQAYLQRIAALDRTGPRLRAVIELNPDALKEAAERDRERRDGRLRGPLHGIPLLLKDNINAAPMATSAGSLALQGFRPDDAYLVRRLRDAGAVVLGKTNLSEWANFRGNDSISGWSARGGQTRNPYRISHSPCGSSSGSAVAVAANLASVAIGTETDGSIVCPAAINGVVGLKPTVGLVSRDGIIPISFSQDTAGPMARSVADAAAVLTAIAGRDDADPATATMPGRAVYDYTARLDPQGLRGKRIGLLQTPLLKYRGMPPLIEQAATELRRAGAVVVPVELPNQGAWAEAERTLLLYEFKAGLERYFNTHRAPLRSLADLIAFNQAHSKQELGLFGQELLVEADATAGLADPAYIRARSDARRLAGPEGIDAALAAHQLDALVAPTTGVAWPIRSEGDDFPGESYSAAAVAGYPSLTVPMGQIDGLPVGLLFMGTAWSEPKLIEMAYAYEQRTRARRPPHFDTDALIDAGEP
Nature of the data set: Substrate spectrum of peptide amidase, enzymatic determination of the released ammonia. The note with it: substrate 10 mM, 18 mU peptide amidase per ml, 50 mM tris/HCl pH 7.5, 30° C., 3 hours. Format: biochemical. On the procedure: (§1) 18 mU of peptide amidase (purification state after the gel filtration) per ml test batch was used for the substrate spectrum of peptide amidase from Xanthomonas maltophilia. The concentration of the tested substrates was 10 mM in the reaction batch. Unless otherwise indicated, L-amino acid derivatives were used. The incubation took place in 50 mM tris/HCl, pH 7.5 at 30° C. for 3 hours. The reaction was stopped by heating for 5 minutes at 95° C. The determination of activity took place using enzymatic determination of the released ammonia (Bergmeyer, U. (1985): Methods of Enzymatic Analysis, p. 459, VCH Verlagsgesellschaft, Weinheim).

Another data set concerns Xanthomonas maltophilia. Nature of the data set: Inducibility of peptide amidase from Xanthomonas maltophilia. Format: cell-based. The conditions noted are these: for Activity (peptide amidase in raw extract) / Spec. activity (peptide amidase in raw extract): additive in the nutrient medium (amide 0.5%), 2 days, 30° C., 120 rpm. How it is done: 1 l Erlenmeyer flasks were provided with 200 ml of the nutrient medium used in the second part of the screening for the examinations of the inducibility of peptide amidase from Xanthomonas maltophilia. The amount of yeast extract was raised to 0.1% thereby and only one amide derivative added to 0.5% of the medium in each instance. In addition, media without the addition of amides and with 1.5% yeast extract were examined. Ac-DL-Met-NH2, leucine amide and carnitine amide were used as amides. The flasks were inoculated to 0.5% and agitated 2 days at 30° C. and 120 rpm. The obtention of the raw extracts took place as already described above.

The target of data set [2] is T1, peptide amidase from Xanthomonas maltophilia. The data set can be described thus: biochemical. The note with it: for remaining activity at 10000 µM: read-out: residual activity. Format: biochemical.
The target is the same in data set [3]. Nature of the data set: Splitting of racemic mixtures of N-protected amino acid amides. The conditions noted are these: racemic substrate 10 mM, 20 U peptide amidase in 50 ml, 50 mM triethylammonium carbonate pH 7.5, 30° C. Format: biochemical. On the procedure: The tests for the splitting [separation] of racemic mixtures took place in 50 mM triethylammonium carbonate buffer, pH 7.5. The test batches a 50 ml with 20 U peptide amidase each were incubated at 30° C. Z-D,L-Ala-NH2, Ac-D,L-Met-NH2 and Ac-D,L-neopentylglycine amide (Ac-D,L-Npg-NH2) were available as substrates. The concentration of the substrates in the reaction batch was 10 mM. Specimens were taken at different times, the reaction stopped by heating for 5 minutes at 95° C. and the enantiomeric purity examined with HPLC.

Data set [4] shares this target. Nature of the data set: Influence of solvents on the peptide amidase activity. Format: biochemical. The note with it: pH 7.5, 90 minutes, 30° C. On the procedure: 200 μl enzyme solution (59 μg BSAeq/ml, purification stage after the gel filtration) were compounded in each instance with 700 μl of an appropriate mixture of 50 mM tris/solvent, pH 7.5 for the examinations of the influence of solvents on the peptide amidase activity. Dimethylformamide (DMF), acetone, ethanol and propan-1-ol, which were present in the reaction batch up to 70% by volumetric amount, were tested as solvents. The reaction was started by adding substrate Z-Gly-Tyr-NH2. The incubation took place for 90 minutes at 30° C. Then, aliquots of 100 μl of the reaction batches were provided with 100 μl glacial acetic acid and the enzyme activity determined as described in 1.4. […] It is apparent that at 20% DMF, 94% residual activity is still present and even at 30%, 59% is still present. In the presence of other solvents such as […] the enzyme distinctly loses activity but is nevertheless not completely inactivated at a content of 10% (residual activity 30%).

For data set [5] the target is unchanged. Nature of the data set: Enzymatic conversion of unprotected amino acid amides, thin-layer chromatography. Format: biochemical. The note with it: substrate 10 mM. On the procedure:
as §1
The following thin-layer chromatographic methods were used for the analysis of the substrates and products cited in table 4d. To this end 1 μl of the stopped reaction batch was applied.

Substrate in data set [6]: NC(=O)[C@H](Cc1ccc(O)cc1)NC(=O)CNC(=O)OCc1ccccc1
Nature of the data set: Enzyme kinetics of peptide amidase. The conditions noted are these: other: substrate 0.4 to 20 mM, 50 mM tris/HCl pH 7.5, 2 hours, 30° C. Format: biochemical, Xanthomonas maltophilia. How it is done: The dependency of the reaction rate of peptide amidase from Xanthomonas maltophilia on the substrate concentration (Z-Gly-Tyr-NH2) was determined and the kinetic parameters determined from the data according to Marquardt. To this end, 50 μl enzyme solution a 27 μg BSAeq/ml were compounded with 400 μl 50 mM tris/HCl buffer, pH 7.5. The reaction was started by adding Z-Gly-Tyr-NH2 as substrate. The substrate was present in the reaction batches in a concentration range of 0.4 to 20 mM. The incubation took place for 2 hours at 30° C. The enzyme activity was then determined as described under 1.4.
The reaction conditions were selected with a view to the pH stability of peptide amidase from Xanthomonas maltophilia.
In order to stop the reaction 100 μl of the reaction solution was removed, compounded with 100 μl glacial acetic acid and filled with 1.4 ml HPLC mobile solvent. An aliquot of 20 μl was analyzed by HPLC. The conditions for the HPLC analysis of Z-Gly-Tyr-NH2 were as follows: […]

The mark [7] stands for this setting: potential inhibitor 10 mM in the test, preincubation 1 h 30° C., Z-Gly-Tyr-NH2 10 mM, 2.5 h.

Like-named read-outs stand apart in the source and are kept apart here.

The text below walks through data of patent US6333176A (Degussa Aktiengesellschaft, priority 1994, dated 2001).

Take `CSCCC(NC(C)=O)C(N)=O` (racemic) [Ac-D,L-Met-NH2, N-Ac-D,L-methionine amide]: in data set [1], the “Relative conversion (conversion of N-acetyl amino acid amides, Table 4b)” value was found to be 102%; the “Relative conversion (influence of protective group and adjacent amino acid, Table 4c)” value amounted to 102%. In addition, in the data set with Xanthomonas maltophilia, the “Activity (peptide amidase in raw extract)” value was determined as 88 mU/ml and the “Spec. activity (peptide amidase in raw extract)” value (“Spec. activity” below) amounted to 13 mU/mg BSAeq. Also, the “change of the specific activity by addition of the inductor” value in the data set with Xanthomonas maltophilia (compared with medium without additive) is reported as “doubled to tripled”.
Consider `O[C@H](CS)[C@H](O)CS` (relative stereo) [1,4-dithio-D,L-threitol], for which the remaining activity at 10000 µM in data set [2] (setting [7]) stood at 96%.
Same read-out and setting: the result for `c1cnc2c(c1)ccc1cccnc12` [1,10-phenanthroline] reads 92%; that for `c1ccc(-c2ccccn2)nc1` [2,2'-dipyridyl], 97%.
For the molecule `CSCC[C@@H](NC(C)=O)C(=O)O` [Ac-D-Met-OH], the “enantiomeric purity examined with HPLC (share of the enantiomer in the acid product)” value in data set [3] is 0.2-0.3%.
The same measure, in the same setting: next, `CC(=O)N[C@H](CC(C)(C)C)C(=O)O` [Ac-D-Npg-OH]: 0.2%.
Still for that read-out and setting: next, `CSCC[C@H](NC(C)=O)C(=O)O` [Ac-L-Met-OH]: 99.7-99.8%; `CC(=O)N[C@@H](CC(C)(C)C)C(=O)O` [Ac-L-Npg-OH, N-acetyl-L-neopentylglycine]: 99.8%.
Consider `CCCCC[C@H](CC(=O)NO)C(=O)N[C@H](C(=O)N1CCC[C@H]1CO)C(C)C` [Actinonine], for which, in data set [2] (setting [7]), the remaining activity at 10000 µM was 106%.
In the case of `C[N+](C)(C)CC(O)CC(N)=O` (stereo not shown) [Carnitine amide, carnitine amide], in the data set with Xanthomonas maltophilia, the “Activity (peptide amidase in raw extract)” value is listed as 30 mU/ml and the “Spec. activity” value came out at 7 mU/mg BSAeq.
Consider `O.O.O.O.O.O.[Cl-].[Cl-].[Co+2]` [CoCl2 *6 H2 O], for which the residual activity (as a rule, the signal under treatment as a percentage of the control signal) in data set [2] (setting [7]) was 80%.
Same read-out and setting: next, `O.O.O.O.O.O=S(=O)([O-])[O-].[Cu+2]` [CuSO4 *5 H2 O]: 103%.
Take `N[C@@H]1CONC1=O` [D-cycloserine]: the remaining activity at 10000 µM in data set [2] (setting [7]) amounted to 100%.
For the molecule `CN(C)C=O` [DMF, Dimethylformamide], the “residual activity of peptidase amidase in presence of solvent” value in data set [4] (20% solvent) worked out at 94%; in data set [4] (30% solvent), 59%.
With `O=C(O)CN(CCN(CC(=O)O)CC(=O)O)CC(=O)O` [EDTA], in data set [2], the remaining activity at 10000 µM came out at 96%.
Take `NC(=O)[C@@H](N)CO` [H-Ser-NH2]: in data set [5], the “Conversion (unprotected amino acid amides)” value came to 0 and the “Conversion (unprotected amino acid amides, Table 4d)” value is recorded as 0.
In the case of `C[C@@H](O)[C@H](N)C(N)=O` [H-Thr-NH2], in data set [5], the “Conversion (unprotected amino acid amides)” value is listed as 0 and the “Conversion (unprotected amino acid amides, Table 4d)” value is 0.
With `NC(=O)[C@@H](N)Cc1c[nH]c2ccccc12` [H-Trp-NH2], in data set [5], the “Conversion (unprotected amino acid amides)” value is 0 and the “Conversion (unprotected amino acid amides, Table 4d)” value amounted to 0.
With `NC(=O)[C@@H](N)Cc1ccc(O)cc1` [H-Tyr-NH2], in data set [5], the “Conversion (unprotected amino acid amides)” value came out at 0 and the “Conversion (unprotected amino acid amides, Table 4d)” value was 0.
On to `CC(C)[C@H](N)C(N)=O` [H-Val-NH2], for which, in data set [5], the “Conversion (unprotected amino acid amides)” value is recorded as 0 and the “Conversion (unprotected amino acid amides, Table 4d)” value is recorded as 0.
As for `N=C(N)NCCC[C@H](N)C(N)=O` [H-arg-NH2], in data set [5], the “Conversion (unprotected amino acid amides)” value worked out at 0 and the “Conversion (unprotected amino acid amides, Table 4d)” value is 0.
`O.O.O.O.O.O.[Cl][Hg][Cl]` [HgCl2 *6 H2 O]: the residual activity in data set [2] (setting [7]) amounted to 67%.
As for `CC(C)C[C@H](N)C(N)=O` [Leu-NH2, leucine amide], in the data set on Xanthomonas maltophilia, the “Activity (peptide amidase in raw extract)” value worked out at 15 mU/ml and the “Spec. activity” value is 3 mU/mg BSAeq.
Take `O.O.O.O.O.O.[Cl][Ni][Cl]` [NiCl2 *6 H2 O]: the residual activity in data set [2] (setting [7]) turned out to be 93%.
For the molecule `NCCc1ccc(S(=O)(=O)F)cc1` [Pefabloc], the “inhibition of the microbial peptide amidase (serine groups)” value in data set [2] is on record as “Inhibition”. Moreover, the residual activity in data set [2] (inhibitor 0.3 mM, preincubation 1 h 30° C., Z-Gly-Tyr-NH2 10 mM) is reported as 62%; in data set [2] (inhibitor 0.1 Mm, preincubation 1 h 30° C., Z-Gly-Tyr-NH2 10 mM), 82%; in data set [2] (setting [7]), 0%.
As for `NNC(N)=O` [Semicarbazide], the remaining activity at 10000 µM in data set [2] (setting [7]) was 99%.
`C[C@@H](NC(=O)OCc1ccccc1)C(=O)O` [Z-D-Ala-OH]: the “enantiomeric purity examined with HPLC (share of the enantiomer in the acid product)” value in data set [3] stood at 0.4%.
Still for that read-out and setting: the result for `C[C@H](NC(=O)OCc1ccccc1)C(=O)O` [Z-L-Ala-OH] reads 99.6%.
Regarding `CC(C)O` [propan-2-ol], in data set [4] (10% solvent), the “residual activity of peptidase amidase in presence of solvent” value is 30%.

B1: peptide amidase from Xanthomonas maltophilia (Stenotrophomonas maltophilia) (protein)
chain: T1 sequence (Q8RJN5 34-540)
notes: wild type, not recombinant
As to B1, the Km (usually the substrate concentration at which the rate is half of its maximum) in data set [6] is 820 µM.
